# The pKa sets of Baltruschat and Czodrowski (2020)
# Where a SMILES comes first, the peptide text is derived from it.
# Conditions: basic group
row,SMILES,pKa
1,CN1C[C@@H](CO)C[C@H]2c3cccc4[nH]cc(c34)C[C@@H]21,8.3
2,CCCC(N)C(=O)[O-] (stereo not given),9.86
3,CCNc1ccnc([S-])n1,11.1
4,CC(C)N(C(C)C)C(C)C,11.9
5,CC(C)=NNC1CCN(C)CC1,8.9
6,COc1ncnc2nccnc12,1.04
7,CC(O)CN(CC(C)O)C(C)C (stereo not given),9.33
8,CN(C)Cc1cc(C(=O)c2ccccc2)ccc1[O-],10.2
9,C[C@H](N)C(=O)N[C@@H](Cc1c[nH]cn1)C(=O)[O-] (H-Ala-His-OH),8.08
10,NC(=O)[C@H](N)[C@H](O)C(=O)O,7.17
11,C=C(C)[C@H]1CN[C@H](C(=O)[O-])[C@H]1CC(N)=O,9.47
12,COc1ccc(C(=N)c2ccccc2)c(OC)c1,8.3
13,CC(O)CN(C)CCO (stereo not given),8.69
14,CCCC1CCCN1C (stereo not given),9.78
15,NCCc1ccc([O-])cc1,10.4
16,NCCc1ccc([N+](=O)[O-])cc1,9.42
17,CN(C)C[C@H]1[C@@H]2CC[C@@](C)([C@H]1N)C2(C)C,9.84
18,CNc1cnccc1N,9.14
19,Nc1ccc2cc3ccc(N)cc3nc2c1,9.65
20,CN(C)CCOC(C)(c1ccccc1)c1ccccc1,8.75
21,CC(C)CNCC(=O)[O-],10.1
22,CCN(C)N,7.3

row,SMILES,pKa
1,C[C@H](O)[C@H]1CC[C@H]2[C@@H]3CC[C@H]4C[C@H](N)CC[C@]4(C)[C@H]3CC[C@]12C,9.28
2,Nc1ccccc1-c1nc2ccccc2s1,2.6
3,NCCCCCc1ccccn1,10.4
4,Cc1ccccc1NC(=O)CN,7.81
5,Cn1cnc2c1C(=O)c1ncnc([O-])c1C2=O,6.09
6,Nc1ccc2nccnc2c1,2.95
7,Nc1ccc(S(=O)(=O)Nc2nccs2)cc1,2.35
8,c1cc(N2CCOCC2)ccn1,8.79
9,CC1=NCCCCN1,12.7
10,CCC(C)(C)N(C)C(C)(C)C,11.9
11,CC(=O)n1cnc2ccccc21,1.8
12,c1ccc2c(c1)ccc1nc[nH]c12,5.28
13,Nc1c(Cl)cc([N+](=O)[O-])cc1Cl,-2.98
14,CN1C[C@H](CO)C[C@H]2c3cccc4[nH]cc(c34)C[C@@H]21,8.84
15,CC(CN(C)C)C(C#N)(c1ccccc1)c1ccccc1 (stereo not given),7.9
16,NCCC=C(Cl)Cl,9.85
17,COc1ccc(-c2nc3ncncc3[nH]2)c(OC)c1,3.09
18,CCN(CC)CCN(CC)CC,9.55
19,N#Cc1ccc2c(c1)CCN2,2.8
20,CCN(CC)CC(=O)[O-],10.5
21,SCCN(Cc1ccccc1)Cc1ccccc1,7.62
22,C=C[C@]1(O)C[C@H](C)N[C@@H]2CCCC[C@H]21,9.83

row,SMILES,pKa
1,Nc1nc([O-])c2ncn([C@@H]3C=C[C@H](CO)C3)c2n1,9.68
2,C[Si](C)(CN)O[Si](C)(C)CN,10.3
3,COc1ccc(C(O)CNC(C)CC2=C(C)C(C)(C)CC2)cc1 (stereo not given),8.79
4,Cc1cn(C)nc1C,3.56
5,Nc1ccc2[nH]c(CCc3ccccc3)nc2c1,7.2
6,O=[N+]([O-])c1ccc(-c2cnc(-c3ccccc3)o2)cc1,0.35
7,Clc1cncc(Cl)c1,0.55
8,NCCCc1ccccn1,10.1
9,NCC[Se-],10.9
10,CN(C)CC[NH+](C)C,6.04
11,CCN(CC)c1nnc(-c2ccccc2)s1,3.09
12,C[n+]1cnc2nc([O-])cnc2c1[O-],6.19
13,CCCNCCN,10.3
14,OC[C@@H]1O[C@H](CN2CCOCC2)[C@@H](O)[C@H](O)[C@@H]1O,6.1
15,Nc1nc[nH+]c(O)c1N,1.34
16,CN(C)CCCC(=O)Oc1ccccc1,9.7
17,Cc1ccccn1,5.98
18,Cc1cc(-c2cc(C)n(C)n2)nn1C,2.22
19,[O-]c1c(Cl)cc(Cl)c(Cl)c1CN1CCOCC1,8.83
20,N[C@@H]1C[C@@H]1N,9.04
21,CCOCCn1c(CN2CC[NH+](CCCCn3cc(C(=O)O)cn3)CC2)nc2ccccc21,4.9
22,O=[N+]([O-])c1ccc2cn[nH]c2c1,0.66

row,SMILES,pKa
1,CC(N)CO (stereo not given),9.43
2,COc1ccc(S(=O)(=O)CCN2CCCCC2)c(OC)c1OC,7.24
3,CN(C)C[C@@H]1[C@@H](N)[C@]2(C)CC[C@@H]1C2(C)C,9.45
4,Cc1nc(N)c2ncsc2n1,4.56
5,Cc1cc(C)n(Cc2cc(C)[nH]n2)n1,3.5
6,CN(C)CCOCCN(C)C,9.8
7,CN1[C@H]2CC[C@@H]1[C@H](C(=O)[O-])[C@H](O)C2,11.1
8,CN(C)c1ccc(C(O)c2ccc(N(C)C)cc2)cc1,5.61
9,CC(C)(C)c1cc(N)cc(C(C)(C)C)c1,4.97
10,NC(=O)c1cncc2ccccc12,3.8
11,Nc1ccc(-c2ccc(/N=C/c3ccc(O)cc3)cc2)cc1,6.86
12,O=C1CN2CCC1CC2,7.27
13,NCC[NH2+]CCCO,6.78
14,Oc1ccc2c(c1)Nc1ccccc1N2,1.8
15,COc1ccc(C2CCCN2C)cc1 (stereo not given),8.9
16,COC(=O)c1cccnc1,3.23
17,Cc1ncc[nH]1,7.97
18,Cc1ccccc1/C(=N\CCCN(C)C)c1cccc2ccccc12,8.8
19,C[C@]1(O)CCCC[C@@H]1N,9.49
